What was measured:
Type in all cases: cell-based, human
[1] = system: TMPRSS2 mRNA; test: TMPRSS2 expression in C4-2B cells (Example 30); conditions: 48 hrs
Experimental: (§1) Cells were plated at 1,000 cells per well. […] ISIS 549148 was included as a negative control. […] After an incubation period of 48 hrs, RNA levels of AR, PSA and TMPRSS2 were measured.
(§2) Cells were plated at 2,000 cells per well and cultured in CSS media with 1 nM DHT. […] ISIS 549148 was included as a negative control. […] After an incubation period of 48 hrs, RNA levels of AR, PSA and TMPRSS2 were measured. In the absence of DHT, AR expression in C4-2 cells was 188%, PSA expression was 43% and TMPRSS2 expression was 27% compared to the untreated control.

[2] = system: 22RV1 cells; test: 22RV1 cell proliferation (Example 32); conditions: 5 days
Experimental: After a treatment period of 5 days in complete medium, the proliferative capacity of the cancer cells was measured with using CellTiter 96® AQueous One or CellTiter-Glo® Solution Cell Proliferation kit (Promega), following the manufacturer's instructions. […] Treatment with ISIS oligonucleotides in CSS+DHT medium reduced the proliferative capacity to a greater extent than treatment with MVD-3100. The proliferative capacity of cells cultured in CSS medium without DHT is 12% of untreated control levels.

[3] = system: PSA mRNA; test: PSA expression in C4-2B cells (Example 30); conditions: 48 hrs
Experimental: as §1, §2

[4] = system: VCaP cells; test: VCaP cell proliferation; conditions: 5 days; for Proliferation (% untreated control): VCaP cells
Experimental: After a treatment period of 5 days in complete medium or CSS+1 nM DHT medium, the proliferative capacity of the cancer cells was measured with using CellTiter 96® AQueous One or CellTiter-Glo® Solution Cell Proliferation kit (Promega), following the manufacturer's instructions. […] Treatment with ISIS oligonucleotides in CSS+DHT medium reduced the proliferative capacity to a greater extent than treatment with MVD-3100. The proliferative capacity of cells cultured in CSS medium without DHT is 12% of untreated control levels.

[5] = system: TMPRSS2 mRNA; test: Time-course TMPRSS2 expression in C4-2B cells
Experimental: (§3) C4-2B cells were plated at 1,000 cells per well in complete medium. […] ISIS 549148 was included as a negative control. […] After a treatment period of 8 hours, 24 hours, and 48 hours, AR expression was measured with primer probe set hAR-LTS00943. Results are presented in Tables 70-72 as percent expression of AR, relative to non-treated cells.
(§4) Expression analysis of prostate-specific antigen (PSA) and TMPRSS2 were also analyzed. Results are presented in Tables 73-75 as percent inhibition of PSA expression and Tables 76-78 as percent inhibition of TMPRSS2 expression, relative to non-treated cells.

[6] = system: prostate-specific antigen (PSA) mRNA; test: Time-course PSA expression in C4-2B cells
Experimental: as §3, §4

## CNC(=O)c1ccc(N2C(=S)N(c3ccc(C#N)c(C(F)(F)F)c3)C(=O)C2(C)C)cc1F [MDV3100, 4-(3-(4-cyano-3-(trifluoromethyl)phenyl)-5,5-dimethyl-4-oxo-2-thioxoimidazolidin-1-yl)-2-fluoro-N-methylbenzamide, reference compound]
[1]; CSS + DHT medium, 0.04 μM
  Percent inhibition of TMPRSS2 expression: 0%
[1]; CSS + DHT medium, 0.2 μM
  Percent inhibition of TMPRSS2 expression: 11%
[1]; CSS + DHT medium, 1 μM
  Percent inhibition of TMPRSS2 expression: 48%
[1]; CSS + DHT medium, 5.0 μM
  Percent inhibition of TMPRSS2 expression: 66%
[1]; complete medium, 0.04 μM
  Percent inhibition of TMPRSS2 expression: 3%
[1]; complete medium, 0.2 μM
  Percent inhibition of TMPRSS2 expression: 24%
[1]; complete medium, 1 μM
  Percent inhibition of TMPRSS2 expression: 55%
[1]; complete medium, 5.0 μM
  Percent inhibition of TMPRSS2 expression: 71%
[2]; 0.04 μM
  Proliferation (% untreated control) in 22RV1 cells treated with MDV-3100: 87%
[2]; 0.2 μM
  Proliferation (% untreated control) in 22RV1 cells treated with MDV-3100: 83%
[2]; 1.0 μM
  Proliferation (% untreated control) in 22RV1 cells treated with MDV-3100: 81%
[2]; 5.0 μM
  Proliferation (% untreated control) in 22RV1 cells treated with MDV-3100: 74%
[2]
  proliferation of 22RV1 cells: reduced proliferation of the cells in a dose dependent compared to the control
[3]; CSS + DHT medium, 0.04 μM
  Percent inhibition of PSA expression: 0%
[3]; CSS + DHT medium, 0.2 μM
  Percent inhibition of PSA expression: 0%
[3]; CSS + DHT medium, 1 μM
  Percent inhibition of PSA expression: 37%
[3]; CSS + DHT medium, 5.0 μM
  Percent inhibition of PSA expression: 45%
[3]; complete medium, 0.04 μM
  Percent inhibition of PSA expression: 8%
[3]; complete medium, 0.2 μM
  Percent inhibition of PSA expression: 27%
[3]; complete medium, 1 μM
  Percent inhibition of PSA expression: 73%
[3]; complete medium, 5.0 μM
  Percent inhibition of PSA expression: 88%
[4]; CSS + DHT medium, 0.04 μM
  Proliferation (% untreated control): 117 % untreated control
[4]; CSS + DHT medium, 0.2 μM
  Proliferation (% untreated control): 119 % untreated control
[4]; CSS + DHT medium, 1.0 μM
  Proliferation (% untreated control): 71 % untreated control
[4]; CSS + DHT medium, 5.0 μM
  Proliferation (% untreated control): 65 % untreated control
[4]; Complete medium, 0.04 μM
  Proliferation (% untreated control): 49 % untreated control
[4]; Complete medium, 0.2 μM
  Proliferation (% untreated control): 44 % untreated control
[4]; Complete medium, 1.0 μM
  Proliferation (% untreated control): 27 % untreated control
[4]; Complete medium, 5.0 μM
  Proliferation (% untreated control): 17 % untreated control
[4]; complete medium or CSS+1 nM DHT
  proliferation of VCaP cells: reduced proliferation of the cells in a dose dependent compared to the control
[5]; 0.04 μM
  Percent inhibition of TMPRSS2 expression compared to the control group in 8 hours: 0%
  Percent inhibition of TMPRSS2 expression compared to the control group in 24 hours: 23%
  Percent inhibition of TMPRSS2 expression compared to the control group in 48 hours: 5%
[5]; 0.2 μM
  Percent inhibition of TMPRSS2 expression compared to the control group in 8 hours: 6%
  Percent inhibition of TMPRSS2 expression compared to the control group in 24 hours: 31%
  Percent inhibition of TMPRSS2 expression compared to the control group in 48 hours: 16%
[5]; 1 μM
  Percent inhibition of TMPRSS2 expression compared to the control group in 8 hours: 45%
  Percent inhibition of TMPRSS2 expression compared to the control group in 24 hours: 63%
  Percent inhibition of TMPRSS2 expression compared to the control group in 48 hours: 46%
[5]; 5.0 μM
  Percent inhibition of TMPRSS2 expression compared to the control group in 8 hours: 52%
  Percent inhibition of TMPRSS2 expression compared to the control group in 24 hours: 72%
  Percent inhibition of TMPRSS2 expression compared to the control group in 48 hours: 59%
[5]; time course
  TMPRSS2 expression: also reduced downstream gene expressions but not as potently as that with the ISIS oligonucleotides
[6]; 0.04 μM
  Percent inhibition of PSA expression compared to the control group in 8 hours: 0%
  Percent inhibition of PSA expression compared to the control group in 24 hours: 24%
  Percent inhibition of PSA expression compared to the control group in 48 hours: 5%
[6]; 0.2 μM
  Percent inhibition of PSA expression compared to the control group in 8 hours: 3%
  Percent inhibition of PSA expression compared to the control group in 24 hours: 24%
  Percent inhibition of PSA expression compared to the control group in 48 hours: 5%
[6]; 1 μM
  Percent inhibition of PSA expression compared to the control group in 8 hours: 23%
  Percent inhibition of PSA expression compared to the control group in 24 hours: 53%
  Percent inhibition of PSA expression compared to the control group in 48 hours: 32%
[6]; 5.0 μM
  Percent inhibition of PSA expression compared to the control group in 8 hours: 33%
  Percent inhibition of PSA expression compared to the control group in 24 hours: 65%
  Percent inhibition of PSA expression compared to the control group in 48 hours: 63%
[6]; time course
  PSA expression: also reduced downstream gene expressions but not as potently as that with the ISIS oligonucleotides
